Experimental data published in patent US20230339970A1, “CASEIN KINASE 1 DELTA MODULATORS” (priority 2020, published 2023).

Tests used:
[1] = target: T1, human recombinant GST cleaved CSNK1D (Homo sapiens, UniProt P48730); assay: Purified Enzyme Assay (ADP-Glo CSNK1D Kinase Assay); format: biochemical; settings: 2 nM CSNK1D; peptide substrate 150 μM; ATP 20 μM; 45 minutes at room temperature
T1 construct: GST (cleaved yes); purchased University of Dundee clone DU 19064
Procedure, shortened: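 GST-cleaved human recombinant CSNK1D phosphorylates peptide PLSRTL-pS-VASLPGL with ATP; compounds added in dose-response, 45 min at room temperature. ADP formed measured by ADP-Glo luminescence and converted to percent activity.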

[2] = target: T2, human CSNK1D (Homo sapiens, UniProt P48730); assay: Whole Cell nBRET CSNK1D Binding Assay; settings: living CHO cells stably expressing human CSNK1D tagged with nanoluciferase; NanoBret tracer 130 nM; 2 hours at 37 C
T2 construct: expressed in transfected cells
T2 sequence (P48730 whole entry): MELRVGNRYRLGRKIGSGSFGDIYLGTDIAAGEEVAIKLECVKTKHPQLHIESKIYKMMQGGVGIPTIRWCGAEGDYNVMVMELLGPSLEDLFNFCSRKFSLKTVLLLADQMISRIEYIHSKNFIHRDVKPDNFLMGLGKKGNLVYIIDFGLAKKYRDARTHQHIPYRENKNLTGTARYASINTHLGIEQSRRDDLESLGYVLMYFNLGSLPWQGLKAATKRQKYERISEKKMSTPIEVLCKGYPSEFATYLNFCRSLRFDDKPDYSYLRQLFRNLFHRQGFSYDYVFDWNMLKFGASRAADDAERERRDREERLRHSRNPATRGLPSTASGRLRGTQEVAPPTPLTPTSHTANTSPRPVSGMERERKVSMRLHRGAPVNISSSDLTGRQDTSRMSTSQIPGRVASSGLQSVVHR

T1 sequence (P48730 whole entry): as above

Structure (SMILES)	IC50 [1] [nM]	IC50 [2] [nM]
Cc1nc(-c2c(-c3ccc(F)cc3)nn3c2OCC(F)(F)C3)c2cn[nH]c2n1 [Example 469, 6,6-Difluoro-2-(4-fluorophenyl)-3-(6-methyl-1H-pyrazolo[3,4-d]pyrimidin-4-yl)-5,7-dihydropyrazolo[5,1-b][1,3]oxazine]	28	385
CC1(C)Cc2c(-c3ccnc4[nH]ncc34)c(-c3ccc(F)cc3)nn2C1 [Example 231, 4-[2-(4-Fluorophenyl)-5,5-dimethyl-4,6-dihydropyrrolo[1,2-b]pyrazol-3-yl]-1H-pyrazolo[3,4-b]pyridine]	1	4
COc1cccc(-c2nn3c(c2-c2ccnc4[nH]ncc24)COC(C)(C)C3)n1 [Example 161, 2-(6-Methoxypyridin-2-yl)-6,6-dimethyl-3-(1H-pyrazolo[3,4-b]pyridin-4-yl)-6,7-dihydro-4H-pyrazolo[5,1-c][1,4]oxazine]	26	1400
Cc1cc(-c2c(-c3ccc(F)cc3)nn3c2OC[C@@H](C)C3)c2cn[nH]c2n1 (single isomer, unassigned) [Example 193, (*S)-2-(4-Fluorophenyl)-6-methyl-3-(6-methyl-1H-pyrazolo[3,4-b]pyridin-4-yl)-6,7-dihydro-5H-pyrazolo[5,1-b][1,3]oxazine]	< 0.5	5
Fc1ccc(-c2nn3c(c2-c2ccnc4[nH]ncc24)OCCC3)cc1 [Example 184, 2-(4-Fluorophenyl)-3-(1H-pyrazolo[3,4-b]pyridin-4-yl)-6,7-dihydro-5H-pyrazolo[5,1-b][1,3]oxazine]	2	15
Cc1nc2[nH]ncc2c(-c2c(-c3ccc(F)cn3)nn3c2CC2(C3)CC2(F)F)c1F (single isomer, unassigned) [Example 264, (*S)-1′.1′-Difluoro-3-(5-fluoro-6-methyl-1H-pyrazolo[3,4-b]pyridin-4-yl)-2-(5-fluoro-2-pyridyl)spiro[4,6-dihydropyrrolo[1,2-b]pyrazole-5,2′-cyclopropane]]	4	20
Cc1cc(-c2c(-c3ccc(F)cn3)nn3c2CCC2C3C2(F)F)c2cn[nH]c2n1 (racemic) [Example 59, (Racemic) 6,6-Difluoro-2-(5-fluoropyridin-2-yl)-3-(6-methyl-1H-pyrazolo[3,4-b]pyridin-4-yl)-5,5a,6,6a-tetrahydro-4H-cyclopropa[e]pyrazolo[1,5-a]pyridine]	4	82
Nc1cc(-c2c(-c3ccc(F)cc3)nn3c2CCC(F)(F)C3)ccn1 [Example 41, 4-(6,6-Difluoro-2-(4-fluorophenyl)-4,5,6,7-tetrahydropyrazolo[1,5-a]pyridin-3-yl)pyridin-2-amine]	8	75
[2H]C([2H])([2H])C1(C([2H])([2H])[2H])CCc2c(-c3ccnc4[nH]ncc34)c(-c3ccc(F)cn3)nn2C1 [Example 283, 4-(2-(5-fluoropyridin-2-yl)-6,6-bis(methyl-d3)-4,5,6,7-tetrahydropyrazolo[1,5-a]pyridin-3-yl)-1H-pyrazolo[3,4-b]pyridine]	2	7
COC1(C)COCc2c(-c3ccnc4[nH]ncc34)c(-c3ccc(F)cn3)nn2C1 (single isomer, unassigned) [Example 486, (*R)-2-(5-Fluoropyridin-2-yl)-7-methoxy-7-methyl-3-(1H-pyrazolo[3,4-b]pyridin-4-yl)-7,8-dihydro-4H,6H-pyrazolo[5,1-c][1,4]oxazepine]	763	> 10000
COCC1(F)CCc2c(-c3cc(C)nc4[nH]ccc34)c(-c3ccc(F)cn3)nn2C1 (single isomer, unassigned) [Example 298, (*S)-4-[6-Fluoro-2-(5-fluoro-2-pyridyl)-6-(methoxymethyl)-5,7-dihydro-4H-pyrazolo[1,5-a]pyridin-3-yl]-6-methyl-1H-pyrrolo[2,3-b]pyridine]	2	12
CC1(C)Cn2nc(-c3ccc(F)cn3)c(-c3ccnc4[nH]cc(C#N)c34)c2CO1 [Example 148, 4-(2-(5-Fluoropyridin-2-yl)-6,6-dimethyl-6,7-dihydro-4H-pyrazolo[5,1-c][1,4]oxazin-3-yl)-1H-pyrrolo[2,3-b]pyridine-3-carbonitrile]	59	3280
Cc1cc(-c2c(-c3ccc(F)cn3)nn3c2COCC3)c2cn[nH]c2n1 [Example 79, 2-(5-Fluoro-2-pyridyl)-3-(6-methyl-1H-pyrazolo[3,4-b]pyridin-4-yl)-6,7-dihydro-4H-pyrazolo[5,1-c][1,4]oxazine]	7	227
CC1(C)Cn2nc(-c3ccc(F)cn3)c(-c3ccnc(NC(=O)C4CC4(F)F)c3)c2CO1 (stereo not drawn) [Example 135, 2,2-Difluoro-N-(4-(2-(5-fluoropyridin-2-yl)-6,6-dimethyl-6,7-dihydro-4H-pyrazolo[5,1-c][1,4]oxazin-3-yl)pyridin-2-yl)cyclopropane-1-carboxamide]	3	6
c1csc(-c2nn3c(c2-c2ccnc4[nH]ncc24)CCCC3)n1 [Example 29, 2-(3-(1H-Pyrazolo[3,4-b]pyridin-4-yl)-4,5,6,7-tetrahydropyrazolo[1,5-a]pyridin-2-yl)thiazole]	35	1200
[2H]C([2H])([2H])C1(C([2H])([2H])[2H])Cn2nc(-c3ccc(F)cn3)c(-c3ccnc(NC(=O)CC)c3)c2CO1 [Example 395, N-(4-(2-(5-Fluoropyridin-2-yl)-6,6-bis(methyl-d3)-6,7-dihydro-4H-pyrazolo[5,1-c][1,4]oxazin-3-yl)pyridin-2-yl)propionamide]	2	21
Fc1ccc(-c2nn3c(c2-c2ccn4nccc4c2)CC[C@@H]2[C@H]3C2(F)F)cc1 (stereo in doubt) [Example 354, (5a*R,6a*S)-6,6-difluoro-2-(4-fluorophenyl)-3-(pyrazolo[1,5-a]pyridin-4-yl)-5,5a,6,6a-tetrahydro-4H-cyclopropa[e]pyrazolo[1,5-a]pyridine]	18	71
Fc1ccc(-c2nn3c(c2-c2ccnc4[nH]ncc24)CC2(C3)CC2(F)F)cc1 (single isomer, unassigned) [Example 250, (*S)-1′,1′-Difluoro-2-(4-fluorophenyl)-3-(1H-pyrazolo[3,4-b]pyridin-4-yl)spiro[4,6-dihydropyrrolo[1,2-b]pyrazole-5,2′-cyclopropane]]	1	5

More lines, now with the values ahead:

IC50 [1] [nM]	IC50 [2] [nM]	Structure (SMILES)
15	171	CC1(C)Cn2nc(-c3ccc(F)cn3)c(-c3ccn4ncc(Cl)c4c3)c2CO1 [Example 384, 3-(3-Chloropyrazolo[1,5-a]pyridin-5-yl)-2-(5-fluoropyridin-2-yl)-6,6-dimethyl-6,7-dihydro-4H-pyrazolo[5,1-c][1,4]oxazine]
4	100	C[C@@H]1COCc2c(-c3ccnc4[nH]ncc34)c(-c3ccc(F)cc3)nn21 (single isomer, unassigned) [Example 92, (*R)-2-(4-Fluorophenyl)-7-methyl-3-(1H-pyrazolo[3,4-b]pyridin-4-yl)-6,7-dihydro-4H-pyrazolo[5,1-c][1,4]oxazine]
10	48	Fc1ccc(-c2nn3c(c2-c2ccn4nccc4c2)C[C@H](F)C3)cc1 [Example 226, 5-[(5S)-5-Fluoro-2-(4-fluorophenyl)-5,6-dihydro-4H-pyrrolo[1,2-b]pyrazol-3-yl]pyrazolo[1,5-a]pyridine]
7	92	Cc1cc(-c2c(-c3ccc(F)cc3)nn3c2COC[C@H]3C)c2cn[nH]c2n1 (single isomer, unassigned) [Example 94, (*R)-2-(4-Fluorophenyl)-7-methyl-3-(6-methyl-1H-pyrazolo[3,4-b]pyridin-4-yl)-6,7-dihydro-4H-pyrazolo[5,1-c][1,4]oxazine]
32	2730	CC[C@H]1Cn2nc(-c3ccc(F)cn3)c(-c3ccnc4[nH]ncc34)c2CO1 (single isomer, unassigned) [Example 96, (*S)-6-Ethyl-2-(5-fluoropyridin-2-yl)-3-(1H-pyrazolo[3,4-b]pyridin-4-yl)-6,7-dihydro-4H-pyrazolo[5,1-c][1,4]oxazine]
1	8	Fc1ccc(-c2nn3c(c2-c2ccnc4[nH]ncc24)CCC2(C3)CC2(F)F)nc1 (single isomer, unassigned) [Example 328, (*R)-2,2-Difluoro-2′-(5-fluoropyridin-2-yl)-3′-(1H-pyrazolo[3,4-b]pyridin-4-yl)-4′,5′-dihydro-7′H-spiro[cyclopropane-1,6′-pyrazolo[1,5-a]pyridine]]
2	37	Fc1ccc(-c2nn3c(c2-c2ccnc4[nH]ncc24)COCC3)cc1 [Example 70, 2-(4-Fluorophenyl)-3-(1H-pyrazolo[3,4-b]pyridin-4-yl)-6,7-dihydro-4H-pyrazolo[5,1-c][1,4]oxazine]
37	112	[2H]C([2H])([2H])[C@@]1(C#N)CCc2c(-c3ccnc4[nH]ncc34)c(-c3ccc(F)cn3)nn2C1 (single isomer, unassigned) [Example 324, (*R)-2-(S-Fluoropyridin-2-yl)-6-(methyl-d3)-3-(1H-pyrazolo[3,4-b]pyridin-4-yl)-4,5,6,7-tetrahydropyrazolo[1,5-a]pyridine-6-carbonitrile]
2	23	Cc1cc(-c2c(-c3ccc(F)cn3)nn3c2CC(C)(C)C3)c2cn[nH]c2n1 [Example 238, 4-[2-(5-Fluoro-2-pyridyl)-5,5-dimethyl-4,6-dihydropyrrolo[1,2-b]pyrazol-3-yl]-6-methyl-1H-pyrazolo[3,4-b]pyridine]
